Activity calls are given as the source filed them. The calls are words filed in the database; no cut-off is given here.
What was measured:
[1] = biological target: T1, Serine/threonine-protein kinase 24 (Homo sapiens, UniProt Q9Y6E0); conditions: dose 10.0 µM
Target sequence in this assay (Q9Y6E0 whole entry, looked up): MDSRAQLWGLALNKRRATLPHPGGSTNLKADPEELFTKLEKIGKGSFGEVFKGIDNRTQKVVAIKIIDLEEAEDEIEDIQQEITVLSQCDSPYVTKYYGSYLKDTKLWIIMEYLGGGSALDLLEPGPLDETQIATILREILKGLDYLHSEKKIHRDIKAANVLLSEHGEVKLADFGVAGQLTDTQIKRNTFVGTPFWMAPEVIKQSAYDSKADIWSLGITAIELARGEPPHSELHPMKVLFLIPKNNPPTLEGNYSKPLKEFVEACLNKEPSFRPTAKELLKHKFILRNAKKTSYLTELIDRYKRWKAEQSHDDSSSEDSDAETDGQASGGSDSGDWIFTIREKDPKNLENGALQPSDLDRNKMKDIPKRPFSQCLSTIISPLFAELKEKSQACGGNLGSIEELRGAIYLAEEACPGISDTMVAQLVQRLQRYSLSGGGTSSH
Description: Binding affinity to recombinant MST3 (unknown origin) kinase domain assessed as thermal stabilization by measuring change in melting temperature at 10 uM by DSF analysis

[2] = biological target: Glycogen synthase kinase-3 beta (Homo sapiens) (UniProt P49841); test: Binding affinity to GSK3B (unknown origin) assessed as thermal stabilization by measuring change in melting temperature by DSF analysis
[3] = biological target: T2, Serine/threonine-protein kinase 26 (Homo sapiens, UniProt Q9P289); test: Binding affinity to C-terminal full length human MST4 expressed in permeabilized HEK293T cells incubated for 2 hrs by NanoBRET assay; assay type: cell-based
Target sequence in this assay (Q9P289 whole entry): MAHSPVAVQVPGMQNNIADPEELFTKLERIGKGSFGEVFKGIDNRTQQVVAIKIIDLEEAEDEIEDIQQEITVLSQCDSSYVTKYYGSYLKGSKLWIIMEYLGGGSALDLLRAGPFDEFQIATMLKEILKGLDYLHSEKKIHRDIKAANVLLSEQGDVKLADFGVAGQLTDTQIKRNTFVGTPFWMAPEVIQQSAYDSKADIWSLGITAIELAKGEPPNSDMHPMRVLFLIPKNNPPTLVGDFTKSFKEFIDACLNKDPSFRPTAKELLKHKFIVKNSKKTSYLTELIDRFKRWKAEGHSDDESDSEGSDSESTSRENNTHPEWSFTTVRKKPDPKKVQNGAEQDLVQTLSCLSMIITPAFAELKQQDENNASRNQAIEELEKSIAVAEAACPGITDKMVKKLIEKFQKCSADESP

[4] = biological target: T1, Serine/threonine-protein kinase 24; test: Binding affinity to C-terminal full length human MST3 expressed in intact HEK293T cells incubated for 2 hrs by NanoBRET assay; assay type: cell-based
Target sequence in this assay (Q9Y6E0 whole entry): as the sequence (Q9Y6E0 whole entry, looked up) above

[5] = biological target: T3, Serine/threonine-protein kinase 3 (Homo sapiens, UniProt Q13188); test: Binding affinity to N-terminal full length human MST2 expressed in intact HEK293T cells incubated for 2 hrs by NanoBRET assay; assay type: cell-based
T3 sequence (Q13188 whole entry): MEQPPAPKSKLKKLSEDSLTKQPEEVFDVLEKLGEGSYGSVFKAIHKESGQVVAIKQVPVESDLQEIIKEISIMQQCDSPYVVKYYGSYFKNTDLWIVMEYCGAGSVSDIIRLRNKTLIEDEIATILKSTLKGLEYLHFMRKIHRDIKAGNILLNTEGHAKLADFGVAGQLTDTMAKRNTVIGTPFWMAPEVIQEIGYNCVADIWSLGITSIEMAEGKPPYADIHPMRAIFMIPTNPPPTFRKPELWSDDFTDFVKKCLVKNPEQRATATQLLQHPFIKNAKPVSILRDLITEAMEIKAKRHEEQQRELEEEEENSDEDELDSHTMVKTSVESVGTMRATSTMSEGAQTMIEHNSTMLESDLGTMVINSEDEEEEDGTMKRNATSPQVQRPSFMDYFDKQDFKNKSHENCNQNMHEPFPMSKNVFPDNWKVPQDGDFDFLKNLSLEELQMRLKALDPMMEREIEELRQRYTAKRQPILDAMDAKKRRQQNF

[6] = biological target: T4, Serine/threonine-protein kinase 4 (Homo sapiens) (UniProt Q13043); conditions: dose 10.0 µM
T4 sequence (whole entry): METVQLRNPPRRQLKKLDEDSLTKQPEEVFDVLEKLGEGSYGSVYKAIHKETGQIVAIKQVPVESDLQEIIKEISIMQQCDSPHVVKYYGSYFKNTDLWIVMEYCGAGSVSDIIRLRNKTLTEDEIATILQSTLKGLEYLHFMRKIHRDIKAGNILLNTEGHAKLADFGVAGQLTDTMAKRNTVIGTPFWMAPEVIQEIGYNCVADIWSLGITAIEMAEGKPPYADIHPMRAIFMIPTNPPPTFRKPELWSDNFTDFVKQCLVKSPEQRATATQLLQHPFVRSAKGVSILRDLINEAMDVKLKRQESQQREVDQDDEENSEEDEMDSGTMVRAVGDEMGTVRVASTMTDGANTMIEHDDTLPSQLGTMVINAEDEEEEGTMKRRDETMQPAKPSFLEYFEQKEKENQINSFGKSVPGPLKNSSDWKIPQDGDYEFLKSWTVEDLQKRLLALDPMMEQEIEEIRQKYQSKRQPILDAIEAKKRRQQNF
Description: Binding affinity to recombinant MST1 (unknown origin) kinase domain assessed as thermal stabilization by measuring change in melting temperature at 10 uM by DSF analysis

[7] = biological target: T2, Serine/threonine-protein kinase 26; conditions: dose 10.0 µM
Target sequence in this assay (Q9P289 2-416 limits assumed): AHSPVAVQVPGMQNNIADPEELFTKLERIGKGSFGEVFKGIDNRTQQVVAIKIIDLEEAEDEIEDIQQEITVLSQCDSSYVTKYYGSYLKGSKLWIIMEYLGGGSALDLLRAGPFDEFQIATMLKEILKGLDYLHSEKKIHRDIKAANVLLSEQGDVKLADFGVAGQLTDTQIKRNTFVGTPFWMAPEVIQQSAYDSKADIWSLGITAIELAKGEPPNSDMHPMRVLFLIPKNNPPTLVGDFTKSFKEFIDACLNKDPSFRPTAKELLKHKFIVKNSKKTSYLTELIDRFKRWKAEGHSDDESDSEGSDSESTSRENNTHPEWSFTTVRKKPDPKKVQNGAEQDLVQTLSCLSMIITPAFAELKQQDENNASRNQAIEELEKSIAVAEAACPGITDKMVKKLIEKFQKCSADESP
Description: Binding affinity to recombinant MST4 (unknown origin) kinase domain assessed as thermal stabilization by measuring change in melting temperature at 10 uM by DSF analysis

[8] = biological target: T1, Serine/threonine-protein kinase 24; test: Binding affinity to C-terminal full length human MST3 expressed in permeabilized HEK293T cells incubated for 2 hrs by NanoBRET assay; assay type: cell-based
Target sequence in this assay (Q9Y6E0 whole entry): as the sequence (Q9Y6E0 whole entry, looked up) above

[9] = biological target: T5, Serine/threonine-protein kinase 3 (Homo sapiens) (UniProt Q13188); conditions: dose 10.0 µM
T5 sequence (whole entry): T3 sequence (Q13188 whole entry)
Description: Binding affinity to recombinant MST2 (unknown origin) kinase domain assessed as thermal stabilization by measuring change in melting temperature at 10 uM by DSF analysis

[10] = biological target: T6, Serine/threonine-protein kinase 4 (Homo sapiens, UniProt Q13043); test: Binding affinity to N-terminal full length human MST1 expressed in intact HEK293T cells incubated for 2 hrs by NanoBRET assay; assay type: cell-based
T6 sequence (Q13043 whole entry): T4 sequence (whole entry)

[11] = biological target: T2, Serine/threonine-protein kinase 26; test: Binding affinity to C-terminal full length human MST4 expressed in intact HEK293T cells incubated for 2 hrs by NanoBRET assay; assay type: cell-based
Target sequence in this assay (Q9P289 whole entry): as the sequence (Q9P289 whole entry) above

[12] = biological target: T5, Serine/threonine-protein kinase 3 (Homo sapiens); test: Binding affinity to MST2 (unknown origin) assessed as residual activity at 10 uM relative to control
HCT-116 [13] = test: Cell cycle arrest in human HCT-116 cells expressing […] assessed as S phase cells at 10 uM incubated for 72 hrs by Hoechst33342 staining based analysis relative to control; assay type: functional
[14] = biological target: T2, Serine/threonine-protein kinase 26; test: Binding affinity to MST4 (unknown origin) assessed as residual activity at 10 uM relative to control
Target sequence in this assay (Q9P289 2-416 limits assumed): as the sequence (Q9P289 2-416 limits assumed) above

HCT-116 [15] = test: Cell cycle arrest in human HCT-116 cells expressing […] assessed as G2/M phase cells at 1 uM incubated for 72 hrs by Hoechst33342 staining based analysis (reference value: 38%); assay type: functional
[16] = biological target: T4, Serine/threonine-protein kinase 4 (Homo sapiens); test: Binding affinity to MST1 (unknown origin) assessed as residual activity at 10 uM relative to control
HCT-116 [17] = test: Cell cycle arrest in human HCT-116 cells expressing […] assessed as G1 phase cells at 10 uM incubated for 72 hrs by Hoechst33342 staining based analysis (reference value: 52%); assay type: functional
HCT-116 [18] = test: Cell cycle arrest in human HCT-116 cells expressing […] assessed as G1 phase cells at 1 uM incubated for 72 hrs by Hoechst33342 staining based analysis (reference value: 52%); assay type: functional
HCT-116 [19] = test: Cell cycle arrest in human HCT-116 cells expressing […] assessed as S phase cells at 1 uM incubated for 72 hrs by Hoechst33342 staining based analysis relative to control; assay type: functional
[20] = Toxicity in human HCT-116 cells expressing FUCCI assessed as decrease in normalized cell count at 1 to 10 uM measured after 72 hrs by Hoechst33342 staining based analysis relative to control; parameters: scale not given: the % may be the effect or the level left; conditions: hct-116, 72 h, dose 1-10 µM
HCT-116 [21] = test: Cell cycle arrest in human HCT-116 cells expressing […] assessed as G2/M phase cells at 10 uM incubated for 72 hrs by Hoechst33342 staining based analysis (reference value: 38%); assay type: functional

Sequence of Glycogen synthase kinase-3 beta (Homo sapiens) (P49841 whole entry, looked up): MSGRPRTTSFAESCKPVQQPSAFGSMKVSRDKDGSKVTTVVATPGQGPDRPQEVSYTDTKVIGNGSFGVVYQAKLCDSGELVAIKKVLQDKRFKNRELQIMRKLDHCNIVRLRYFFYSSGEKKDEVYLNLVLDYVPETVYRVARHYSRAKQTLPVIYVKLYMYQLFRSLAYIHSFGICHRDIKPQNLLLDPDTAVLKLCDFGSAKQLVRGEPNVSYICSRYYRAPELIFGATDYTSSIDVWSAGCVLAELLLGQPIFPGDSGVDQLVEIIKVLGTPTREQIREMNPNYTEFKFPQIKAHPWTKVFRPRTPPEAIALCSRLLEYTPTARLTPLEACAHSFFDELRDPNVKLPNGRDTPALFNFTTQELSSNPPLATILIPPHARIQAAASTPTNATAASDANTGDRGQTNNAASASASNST

Structure (SMILES) | ΔTm [1] [°C] | EC50 [3] [µM] | EC50 [4] [µM] | EC50 [5] [µM] | ΔTm [6] [°C] | ΔTm [7] [°C] | EC50 [8] [µM] | ΔTm [9] [°C] | EC50 [10] [µM] | EC50 [11] [µM] | also measured
O=C1NCCCCCCNc2nc(c3ccccc3n2)Nc2cc1[nH]n2 | 3.7 | 1.26 | 1.75 | 40.1 | 0.7 | 4 | 0.45 | 0.4 | > 50 | – | ΔTm [2]: > 5 °C
O=C1NCCCCCCNc2ncc(Cl)c(n2)Nc2cc1[nH]n2 | 0.3 | 45 | > 50 | > 50 | 1.5 | 2.1 | 21.9 | 1 | > 50 | > 50 | –
O=C1NCCCCCNc2ncc(Cl)c(n2)Nc2cc1[nH]n2 | 2.7 | 7.76 | 40.3 | 10.1 | 2.5 | 1.6 | 2.67 | 2.8 | 9.74 | > 50 | –
O=C1NCCc2cccc(c2)Nc2nc(c3ccccc3n2)Nc2cc1[nH]n2 | 3.9 | 2.44 | 6.51 | 13 | 1.7 | 4 | 0.92 | 1.3 | 13.7 | 11.8 | –
O=C1NCCc2ccc(cc2)Nc2nc(c3ccccc3n2)Nc2cc1[nH]n2 | 3.3 | 2.75 | 4.45 | 28.3 | 1 | 4.7 | 1.46 | 2.3 | 28.6 | 17.5 | –
N#CCc1ccc(Nc2nccc(Nc3cc(C4CC4)[nH]n3)n2)cc1 | 9.3 | – | 6.54 | – | 9.6 | 7.1 | – | 11.6 | – | 4.84 | Activity [12]: 0.15%; Activity (HCT-116 [13]): 16%; Activity [14]: 0.15%; Activity (HCT-116 [15]): 30%; Activity [16]: 0.15%; Activity (HCT-116 [17]): 42%; Activity (HCT-116 [18]): 52%; Activity (HCT-116 [19]): 18%; Activity [20]: < 50%; Activity (HCT-116 [21]): 42%
CNC(=O)c1nn(C)c2c1C(C)(C)Cc1cnc(Nc3ccc(N4CCN(C)CC4)cc3)nc1-2 [MILCICLIB] | – | – | – | – | – | – | – | – | – | – | Activity (HCT-116 [13]): 16%; Activity (HCT-116 [15]): 19%; Activity (HCT-116 [17]): 63%; Activity (HCT-116 [18]): 72%; Activity (HCT-116 [21]): 21%
O=C1NCCOCCNc2ncc(Cl)c(n2)Nc2cc1[nH]n2 | 0.6 | 41.8 | > 50 | > 50 | 1.1 | 2.8 | 17.7 | 0.6 | > 50 | > 50 | –
O=C1NCCc2ccc(cc2)Nc2ncc(Cl)c(n2)Nc2cc1[nH]n2 | 1.2 | 7.61 | 4.97 | 9.96 | 0.3 | 0.7 | 5.17 | 0.7 | 11.8 | 6.71 | –
O=C1NCCOCCNc2nc(c3ccccc3n2)Nc2cc1[nH]n2 | 2.5 | 4.3 | 4.49 | > 50 | 0.6 | 2.5 | 1.23 | 0.5 | > 50 | 37.6 | Activity [2]: inactive
Cc1cnc2nc1Nc1cc([nH]n1)C(=O)NCCc1ccc(cc1)N2 | 0.5 | > 50 | 37 | > 50 | 1 | 2.3 | 38.3 | 0.2 | > 50 | 38.8 | –
O=C1NCCc2cccc(c2)Nc2ncc(Cl)c(n2)Nc2cc1[nH]n2 | 2.9 | 10.3 | 14.1 | 7.54 | 0.8 | 0.6 | 8.53 | 1.7 | 7.84 | 10.2 | –

From ChEMBL document CHEMBL5532666 (J Med Chem, 2024)
